Here are results for one compound from patent publication US9174994B2, “Enhanced treatment regimens using mTor inhibitors” (INTELLIKINE LLC, priority 2011, dated 2015).

For data set [1], the system named is TORC1 (p4EBP1 and pS6) and TORC2 (pPRAS40). Nature of the data set: Human skin immunohistochemistry assay (skin biopsies, Phase I trial). It counts as in vivo. The protocol:
Skin tissue was fixed in 10% neutral-buffered formalin solution for 24 hours and then processed and embedded in paraffin block. Sections (4 μm) were cut and mounted onto microscopic slides. Sections were incubated with primary antibodies (p4EBP1, pS6, or pRAS40) overnight and developed using a chromogenic substrate.
Pharmacodynamic (PD) endpoints were evaluated in surrogate (peripheral blood cells [PBCs], skin) and tumor tissues for the phosphorylation of TORC1-dependent markers (4EBP1/S6), and TORC2-dependent markers (AKT/PRAS40). 50 patients were treated in 3 intermittent dosing regimens; 21 in 6 cohorts ranging 7-40 mg QW, 20 in 5 cohorts ranging 6-20 mg QDx3d QW, and 9 in 3 cohorts ranging 7-13 mg QDxSd QW. […] The MTD for intermittent dosing was not reached. All adverse events (AEs) reported were reversible. The most common (≧20%, n=35) AEs considered possibly related to compound A reported in all 3 dosing regimens included nausea (51%), hyperglycemia (37%), mucosal inflammation (29%), rash (23%), asthenia (23%), vomiting (26%), and diarrhea (20%). The majority of AEs considered possibly related to compound A in any regimen were Grade 1 or 2. The only reported Grade ≧3 AE (≧5%) possibly related to compound A in 3 regimens was lymphopenia (6%). Tables 4-9 show summaries of observed adverse events for various treatment regimens of the invention.

Data set [2] in a line: Phase I clinical trial: plasma pharmacokinetics. Type of data set: in vivo, human. The protocol:
Adult patients with histologically confirmed advanced solid tumors were enrolled in a 3+3 dose escalation Phase I study evaluating 3 intermittent schedules of administration for compound A: QW (once weekly), QD×3d QW (3 days on 4 days off), and QD×5d QW (5 days on 2 days off), in comparison with daily dosing (QD). Safety, maximum tolerated dose (MTD), pharmacokinetics (PK) and preliminary antitumor activity were evaluated.

As for `CC(C)n1nc(-c2ccc3oc(N)nc3c2)c2c(N)ncnc21` [compound A], the “PD (% inhibition, H score) Skin: 4EBP1/PRAS40” value in data set [1] (10 mg Q5D), in data set [1] (13 mg Q5D), in data set [1] (16 mg Q3D), in data set [1] (20 mg Q3D), in data set [1] (30 mg QW) and in data set [1] (40 mg QW) was 80% in each case. In addition, the “pathway inhibition of TORC1 (p4EBP1 and pS6) and TORC2 (pPRAS40)” value in data set [1] (skin biopsies) is 60-100%. For the same compound, the “Time per week (hrs) above 100 nM plasma conc.” value in data set [2] (6 mg QD) amounted to 20 h; in data set [2] (10 mg Q5D), 25 h; in data set [2] (13 mg Q5D), 30 h; in data set [2] (16 mg Q3D), 30 h; in data set [2] (20 mg Q3D), 35 h; in data set [2] (30 mg QW), 15 h. In data set [2] (40 mg QW), the “Time per week (hrs) above 100 nM plasma conc.” value amounted to 20 h. Also, the “Plasma exposures (Cmax and AUC0-24): dose dependence” value in data set [2] (following oral doses) was “dose-linear plasma PK”.
